“And” between values parts separate entries of the source, which are not always exact repeats. Equal entries are not always repeated.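 These data come from cells grown in 96-well plates and exposed to compound for 48 hours at five concentrations. Abbreviation: GI50, concentration required for 50% inhibition of growth. At the TGI there is no net growth.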

This note sets out measurements from PubChem BioAssay (NCI).

Some test systems named below: CAKI-1 renal; HT29 colon; NCI-H460 lung; OVCAR-4 ovarian; NCI/ADR-RES ovarian; 786-0 renal; SN12C renal; SF-295 CNS; MOLT-4 leukemia; EKVX NSCLC.
Test in all cases: growth of human tumour cells (NCI), 48 h

Take `C=C1C(=O)O[C@H]2[C@H]1CC/C(COC(=O)/C=C\C(=O)NCc1ccc(Cn3c(=O)sn(CCCC)c3=O)cc1)=C\CC[C@@]1(C)O[C@@H]21`: the GI50 in the experiment on CAKI-1 renal was 0.328 µM; with HT29 colon, 0.472 µM; in the experiment with NCI-H460 lung, 1.27 µM; with OVCAR-4 ovarian, 0.626 µM; in the experiment with NCI/ADR-RES ovarian, 1.51 µM; in the experiment on 786-0 renal, 1.2 µM. Further, the GI50 with SN12C renal is 0.865 µM; in the experiment with SF-295 CNS it was 1.73 µM; with MOLT-4 leukemia, 0.34 µM; in the experiment with EKVX NSCLC, 1.48 µM. Moreover, the TGI turned out to be 1.48 µM with CAKI-1 renal; 2.07 µM in the experiment on HT29 colon; 2.73 µM in the experiment with NCI-H460 lung; 1.87 µM with OVCAR-4 ovarian; 6.13 µM in the experiment with NCI/ADR-RES ovarian; 2.56 µM in the experiment with 786-0 renal. For the same compound, the TGI was 2.25 µM in the experiment on SN12C renal, 3.24 µM in the experiment on SF-295 CNS, 1.52 µM in the experiment with MOLT-4 leukemia and 2.85 µM in the experiment on EKVX NSCLC.
In the case of `O=S(=O)(Nc1ccc(F)cc1F)c1ccc(-c2cnc(C3CC3)o2)cc1`, the GI50 is 0.562 µM in the experiment with CAKI-1 renal; 0.381 µM with HT29 colon; 0.404 µM with NCI-H460 lung; 3.13 µM in the experiment with OVCAR-4 ovarian; 0.394 µM in the experiment on NCI/ADR-RES ovarian; 0.906 µM with 786-0 renal. Further, the GI50 was 0.878 µM with SN12C renal, 0.359 µM in the experiment on SF-295 CNS, 0.652 µM in the experiment on MOLT-4 leukemia and 1.44 µM in the experiment with EKVX NSCLC. In addition, the TGI in the experiment with CAKI-1 renal is greater than 65.3 µM; in the experiment on HT29 colon, 15.2 µM; with NCI-H460 lung it was 28.2 µM; in the experiment on OVCAR-4 ovarian, greater than 100 µM; in the experiment with NCI/ADR-RES ovarian it was 15 µM; in the experiment with 786-0 renal, 63 µM. In addition, the TGI with SN12C renal was 39.8 µM; with SF-295 CNS, 5.53 µM; with MOLT-4 leukemia, greater than 70.1 µM; in the experiment with EKVX NSCLC it was greater than 73 µM.
In the case of `O=C(c1ccc(/C=C/c2n[nH]c3ccccc23)cc1)N1CCNCC1`, the GI50 in the experiment with CAKI-1 renal was 4.96 µM and 1.35 µM; in the experiment with HT29 colon, 2.04 µM and 2.44 µM; with NCI-H460 lung, 1.87 µM and 1.09 µM; in the experiment on OVCAR-4 ovarian, > 10 µM and 3.82 µM; with NCI/ADR-RES ovarian, > 10 µM and 15.8 µM; in the experiment with 786-0 renal, 9.53 µM and 7.98 µM. In addition, the GI50 in the experiment on SN12C renal is > 10 µM and 2.43 µM; in the experiment with SF-295 CNS, 3.15 µM and 5.28 µM; in the experiment on MOLT-4 leukemia, 2.26 µM and 2.27 µM; in the experiment with EKVX NSCLC, > 10 µM and 8.5 µM. Moreover, the TGI in the experiment on CAKI-1 renal was > 10 µM and 9.11 µM; in the experiment with HT29 colon, 4.77 µM and 15.3 µM; in the experiment with NCI-H460 lung, 3.58 µM and 12.7 µM; in the experiment on OVCAR-4 ovarian, > 10 µM and 26 µM; in the experiment on NCI/ADR-RES ovarian, > 10 µM and 36.7 µM; with 786-0 renal it was > 10 µM and 23 µM. In addition, the TGI is > 10 µM and 19.4 µM in the experiment with SN12C renal; > 10 µM and 21.9 µM in the experiment on SF-295 CNS; 5.79 µM and 36.3 µM in the experiment with MOLT-4 leukemia; > 10 µM and 34.6 µM in the experiment with EKVX NSCLC.
As for `CC(=O)Oc1ccccc1C(=O)Nc1ncc([N+](=O)[O-])s1`, the GI50 is 2.64 µM in the experiment on CAKI-1 renal; 3.37 µM in the experiment on HT29 colon; 2.76 µM with NCI-H460 lung; 2.05 µM in the experiment on OVCAR-4 ovarian; 2.29 µM in the experiment on NCI/ADR-RES ovarian; 2.35 µM with 786-0 renal. Besides, the GI50 in the experiment with SN12C renal is 1.87 µM; in the experiment with SF-295 CNS, 1.91 µM; with MOLT-4 leukemia it was 2.64 µM; in the experiment with EKVX NSCLC it was 2.66 µM. For the same compound, the TGI was greater than 100 µM in the experiment with CAKI-1 renal; 13.5 µM and 97.5 µM in the experiment on HT29 colon; 12.2 µM and > 100 µM in the experiment with NCI-H460 lung; 13.8 µM and > 100 µM with OVCAR-4 ovarian; greater than 85.2 µM with NCI/ADR-RES ovarian; 21.2 µM and 90.9 µM in the experiment with SN12C renal. In the experiment with EKVX NSCLC, this compound returned a TGI greater than 100 µM.
For `CC(C)(S)C(N)C(=O)O` (configuration not stated), the GI50 in the experiment on CAKI-1 renal was 983 µM; with HT29 colon, greater than 5000 µM; in the experiment on NCI-H460 lung it was 937 µM; in the experiment on OVCAR-4 ovarian it was greater than 5000 µM; in the experiment with NCI/ADR-RES ovarian, 3650 µM; in the experiment on 786-0 renal it was greater than 5000 µM. Besides, the GI50 was greater than 5000 µM in the experiment with SN12C renal, 963 µM in the experiment with SF-295 CNS, 3040 µM in the experiment with MOLT-4 leukemia and 1190 µM in the experiment on EKVX NSCLC. Also, the TGI was 2570 µM and > 100 µM in the experiment with CAKI-1 renal; greater than 5000 µM with HT29 colon; 2730 µM and > 100 µM with NCI-H460 lung; greater than 5000 µM in the experiment on OVCAR-4 ovarian; greater than 5000 µM with NCI/ADR-RES ovarian; greater than 5000 µM in the experiment on 786-0 renal. Besides, the TGI in the experiment on SN12C renal is greater than 5000 µM; with SF-295 CNS, 3660 µM and > 100 µM; in the experiment on MOLT-4 leukemia it was greater than 5000 µM; in the experiment on EKVX NSCLC, 3600 µM and > 100 µM.
Consider `CCOC(=O)/C=C(/C)Sc1cc(O)c2ccccc2c1O`, for which the GI50 with CAKI-1 renal was 7.33 µM; in the experiment with HT29 colon, 19.2 µM; in the experiment with NCI-H460 lung it was 13.9 µM; in the experiment on OVCAR-4 ovarian, 3.36 µM; in the experiment with NCI/ADR-RES ovarian it was 3.99 µM; with 786-0 renal it was 15.2 µM. Further, the GI50 in the experiment with SN12C renal is 2.48 µM; in the experiment on SF-295 CNS, 12.4 µM; in the experiment with MOLT-4 leukemia, 2.33 µM; in the experiment with EKVX NSCLC, 3.89 µM. The TGI in the experiment with CAKI-1 renal is 20 µM; with HT29 colon it was 48.4 µM; in the experiment with NCI-H460 lung it was 30.4 µM; in the experiment with OVCAR-4 ovarian, 13.2 µM; in the experiment with NCI/ADR-RES ovarian it was 25.2 µM; in the experiment with 786-0 renal it was 28.6 µM. In addition, the TGI in the experiment with SN12C renal was determined as 7.29 µM; in the experiment with SF-295 CNS it was 26.4 µM; in the experiment on MOLT-4 leukemia it was 7.08 µM; in the experiment with EKVX NSCLC, 21.2 µM.
Consider `c1ccc2nc3c(nc2c1)sc1ccccc13`, for which the TGI was 30.2 µM in the experiment on CAKI-1 renal; greater than 100 µM in the experiment on HT29 colon; 43.6 µM in the experiment on NCI-H460 lung; 32.9 µM with OVCAR-4 ovarian; greater than 100 µM in the experiment with NCI/ADR-RES ovarian; 64.2 µM in the experiment on 786-0 renal. For the same compound, the TGI with SN12C renal is greater than 100 µM; with SF-295 CNS, greater than 100 µM; in the experiment with MOLT-4 leukemia, greater than 100 µM; in the experiment on EKVX NSCLC it was 96.2 µM.
`C1=C\COCc2cc(ccc2OCCN2CCCC2)Nc2nccc(n2)-c2cccc(c2)COC/1`: the GI50 was 0.971 µM with CAKI-1 renal; 1.18 µM in the experiment on HT29 colon; 1.39 µM in the experiment on NCI-H460 lung; 3.79 µM in the experiment with OVCAR-4 ovarian; 2.77 µM with NCI/ADR-RES ovarian; 3.51 µM in the experiment on 786-0 renal. The GI50 was 1.19 µM in the experiment on SN12C renal, 3.34 µM in the experiment with SF-295 CNS, 1.33 µM in the experiment with MOLT-4 leukemia and 2.76 µM with EKVX NSCLC. The TGI in the experiment on CAKI-1 renal worked out at 4.15 µM; in the experiment on HT29 colon it was 5.04 µM; with NCI-H460 lung it was 5.12 µM; with OVCAR-4 ovarian it was 6.56 µM; in the experiment with NCI/ADR-RES ovarian it was 7.35 µM; with 786-0 renal, 5.18 µM. Moreover, the TGI in the experiment with SN12C renal was found to be 4.92 µM; in the experiment with SF-295 CNS, 5.94 µM; in the experiment on MOLT-4 leukemia, 4.9 µM; with EKVX NSCLC it was 7.73 µM.
